Laboratory results: ChEMBL document CHEMBL5465560, “Selectivity Literature for EUbOPEN Chemogenomic Library” (2024)
Each block holds one compound with its values, some of them ahead of it.

Experiments:
[1] = target: T1, Serine/threonine-protein kinase tousled-like 1 (Homo sapiens) (UniProt Q9UKI8); settings: at 10 µM
T1 sequence (whole entry): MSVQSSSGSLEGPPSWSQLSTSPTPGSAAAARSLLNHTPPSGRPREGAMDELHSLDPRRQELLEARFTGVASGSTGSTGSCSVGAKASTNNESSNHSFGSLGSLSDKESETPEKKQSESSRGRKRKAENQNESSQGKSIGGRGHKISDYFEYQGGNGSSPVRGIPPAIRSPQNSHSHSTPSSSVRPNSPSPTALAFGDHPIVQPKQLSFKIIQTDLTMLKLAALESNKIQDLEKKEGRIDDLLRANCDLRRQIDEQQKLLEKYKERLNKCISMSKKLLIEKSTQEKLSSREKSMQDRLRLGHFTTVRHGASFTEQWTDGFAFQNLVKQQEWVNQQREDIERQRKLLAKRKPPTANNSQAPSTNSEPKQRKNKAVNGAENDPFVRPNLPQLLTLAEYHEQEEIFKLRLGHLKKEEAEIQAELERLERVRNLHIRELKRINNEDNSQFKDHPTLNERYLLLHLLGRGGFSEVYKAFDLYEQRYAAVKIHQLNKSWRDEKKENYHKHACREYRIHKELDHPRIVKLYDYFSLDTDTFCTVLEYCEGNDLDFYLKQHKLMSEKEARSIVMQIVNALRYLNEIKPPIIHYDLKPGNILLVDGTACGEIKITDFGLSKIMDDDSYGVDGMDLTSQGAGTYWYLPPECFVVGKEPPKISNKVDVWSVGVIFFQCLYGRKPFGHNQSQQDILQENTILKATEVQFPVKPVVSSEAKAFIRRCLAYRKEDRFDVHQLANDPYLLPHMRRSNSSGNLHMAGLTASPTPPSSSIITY

D(2) dopamine receptor = D(2) dopamine receptor (Homo sapiens, UniProt P14416); assay: Selectivity interaction (Panel of kinases, GPCRs, ion channels and transporters (enzymatic assay)) EUB0000266bCl DRD2
Chain of D(2) dopamine receptor (P14416 whole entry): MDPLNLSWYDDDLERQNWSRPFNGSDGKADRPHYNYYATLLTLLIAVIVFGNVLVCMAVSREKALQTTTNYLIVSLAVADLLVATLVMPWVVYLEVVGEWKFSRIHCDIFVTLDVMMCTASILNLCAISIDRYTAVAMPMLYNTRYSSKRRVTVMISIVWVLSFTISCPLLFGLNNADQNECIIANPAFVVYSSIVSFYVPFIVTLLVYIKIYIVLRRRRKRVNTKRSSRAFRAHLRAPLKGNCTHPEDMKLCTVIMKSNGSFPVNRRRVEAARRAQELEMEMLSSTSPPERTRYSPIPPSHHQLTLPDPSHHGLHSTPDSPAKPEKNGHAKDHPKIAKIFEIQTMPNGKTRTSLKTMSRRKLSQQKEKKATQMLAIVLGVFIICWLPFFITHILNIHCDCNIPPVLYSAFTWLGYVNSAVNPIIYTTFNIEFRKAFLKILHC

[2] = target: Beta-2 adrenergic receptor (Homo sapiens, UniProt P07550); assay: Selectivity interaction (Eurofins CEREP Diversity Profile (receptors and ion channels)) EUB0000279b ADRB2; settings: at 10 µM
Chain of Beta-2 adrenergic receptor (P07550 whole entry, looked up): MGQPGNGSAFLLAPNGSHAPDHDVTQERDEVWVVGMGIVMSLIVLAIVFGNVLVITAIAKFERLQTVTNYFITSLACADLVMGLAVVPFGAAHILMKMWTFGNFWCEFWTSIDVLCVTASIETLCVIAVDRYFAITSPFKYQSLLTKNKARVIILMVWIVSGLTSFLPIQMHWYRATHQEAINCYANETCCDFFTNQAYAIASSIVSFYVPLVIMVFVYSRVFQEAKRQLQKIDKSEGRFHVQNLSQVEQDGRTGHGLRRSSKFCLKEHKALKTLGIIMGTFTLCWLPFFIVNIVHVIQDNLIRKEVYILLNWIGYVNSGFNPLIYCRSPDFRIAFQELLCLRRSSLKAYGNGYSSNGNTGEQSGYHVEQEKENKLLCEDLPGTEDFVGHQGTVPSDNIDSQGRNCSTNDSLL

[3] = target: T2, Mitogen-activated protein kinase kinase kinase 6 (Homo sapiens) (UniProt O95382); assay: Selectivity interaction (KinomeScan (DiscoverX)) EUB0000666a MAP3K6; settings: at 10 µM
T2 sequence (whole entry): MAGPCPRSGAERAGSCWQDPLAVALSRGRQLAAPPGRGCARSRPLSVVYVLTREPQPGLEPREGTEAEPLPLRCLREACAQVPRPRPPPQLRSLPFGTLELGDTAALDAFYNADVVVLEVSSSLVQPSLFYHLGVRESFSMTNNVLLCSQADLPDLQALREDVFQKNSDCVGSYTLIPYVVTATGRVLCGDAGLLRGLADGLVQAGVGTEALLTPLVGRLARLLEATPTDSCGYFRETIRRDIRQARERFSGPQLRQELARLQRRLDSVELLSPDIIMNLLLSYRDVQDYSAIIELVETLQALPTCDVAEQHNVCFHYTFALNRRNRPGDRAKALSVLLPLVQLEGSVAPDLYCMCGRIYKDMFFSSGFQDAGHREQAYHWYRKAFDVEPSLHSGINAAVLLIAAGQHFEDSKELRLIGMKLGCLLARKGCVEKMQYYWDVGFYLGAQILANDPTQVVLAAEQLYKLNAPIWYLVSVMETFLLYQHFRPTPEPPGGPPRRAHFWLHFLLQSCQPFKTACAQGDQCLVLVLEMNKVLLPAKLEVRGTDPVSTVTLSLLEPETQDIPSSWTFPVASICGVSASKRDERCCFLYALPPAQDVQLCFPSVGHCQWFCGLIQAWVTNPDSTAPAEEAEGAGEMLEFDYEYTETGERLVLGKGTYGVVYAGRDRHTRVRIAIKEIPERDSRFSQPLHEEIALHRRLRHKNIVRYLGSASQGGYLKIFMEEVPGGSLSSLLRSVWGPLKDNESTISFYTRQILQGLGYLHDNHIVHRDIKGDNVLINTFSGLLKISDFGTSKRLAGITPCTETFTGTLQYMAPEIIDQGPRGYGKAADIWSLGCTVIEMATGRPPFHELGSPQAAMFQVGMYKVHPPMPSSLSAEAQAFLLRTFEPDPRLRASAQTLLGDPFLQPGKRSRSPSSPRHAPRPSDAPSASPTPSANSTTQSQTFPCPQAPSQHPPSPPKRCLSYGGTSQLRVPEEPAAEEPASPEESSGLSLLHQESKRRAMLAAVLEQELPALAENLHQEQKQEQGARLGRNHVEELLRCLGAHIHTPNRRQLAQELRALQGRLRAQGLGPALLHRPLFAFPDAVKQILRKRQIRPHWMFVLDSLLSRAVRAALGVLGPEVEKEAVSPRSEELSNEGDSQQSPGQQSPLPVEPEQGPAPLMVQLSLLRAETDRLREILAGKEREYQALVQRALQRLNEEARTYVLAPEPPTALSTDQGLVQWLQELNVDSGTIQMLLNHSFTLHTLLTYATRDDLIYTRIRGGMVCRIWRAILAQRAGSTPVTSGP

[4] = target: Maternal embryonic leucine zipper kinase (Homo sapiens) (UniProt Q14680); assay: Selectivity interaction (KinomeScan (DiscoverX)) EUB0000666a MELK; settings: at 10 µM
Chain of Maternal embryonic leucine zipper kinase (Homo sapiens) (Q14680 whole entry, looked up): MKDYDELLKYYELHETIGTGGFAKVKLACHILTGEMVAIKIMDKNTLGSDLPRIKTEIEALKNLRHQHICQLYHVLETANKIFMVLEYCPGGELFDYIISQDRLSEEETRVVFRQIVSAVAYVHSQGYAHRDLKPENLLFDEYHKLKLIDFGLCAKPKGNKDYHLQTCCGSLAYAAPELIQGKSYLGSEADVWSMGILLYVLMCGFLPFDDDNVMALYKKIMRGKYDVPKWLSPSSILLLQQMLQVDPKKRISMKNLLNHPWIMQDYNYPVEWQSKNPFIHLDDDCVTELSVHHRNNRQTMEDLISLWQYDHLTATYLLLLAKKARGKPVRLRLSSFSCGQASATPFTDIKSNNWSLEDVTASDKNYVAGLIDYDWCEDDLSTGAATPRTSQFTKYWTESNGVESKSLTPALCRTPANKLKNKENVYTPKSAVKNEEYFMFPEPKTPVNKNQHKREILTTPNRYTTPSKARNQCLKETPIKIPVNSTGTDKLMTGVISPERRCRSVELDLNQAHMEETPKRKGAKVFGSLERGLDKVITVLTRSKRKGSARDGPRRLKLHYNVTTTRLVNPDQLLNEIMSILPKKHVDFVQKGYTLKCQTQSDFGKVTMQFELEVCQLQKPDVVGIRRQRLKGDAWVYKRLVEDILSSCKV

SMILES: Cc1cc([C@@H](C)Nc2ccccc2C(=O)O)c2nc(N3CCOCC3)cc(=O)n2c1 [AZD-6482]
% of control [1]: 96%

pXC50 (D(2) dopamine receptor): 4.5 M
SMILES: CCn1c(-c2nc3cc(C(=O)N4CCCC(N)C4)ccc3n2C)cc2ccccc21 (stereo not given)

% of control [2]: 99%
SMILES: CC(=O)c1cc(-c2ccccc2OCC2CC2)c2ncccn12

SMILES: O=C(NOC[C@H](O)CO)c1ccc(F)c(F)c1Nc1ccc(I)cc1F
% of control [3]: 95%
% of control [4]: 80%
